Laboratory results as given in ChEMBL document CHEMBL1201862, “PubChem BioAssay data set” (2004).
Calls of active or inactive are those of the source.

Tests used:
[1] = A549 cell cytotoxicity, dose response, cytotoxicity control, plate reader, cherry-pick, antagonist series (AID 743412); format: functional, cell-based
[2] = blockers of bursicon-stimulated LGR2 cAMP reporter – cell-based, HEK293, CRE-luciferase reporter, cherry pick, set 2, dose response (AID 743343); format: functional;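 note: transfected cells were stimulated with diluted bursicon conditioned medium after compound addition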
[3] = target: T1, Sentrin-specific protease 7 (Homo sapiens, UniProt Q9BQF6); experiment: inhibition of human SENP7 cleavage activity – biochemical, luminescence, SAR follow-up (AID 504497); format: functional
T1 sequence (Q9BQF6 whole entry): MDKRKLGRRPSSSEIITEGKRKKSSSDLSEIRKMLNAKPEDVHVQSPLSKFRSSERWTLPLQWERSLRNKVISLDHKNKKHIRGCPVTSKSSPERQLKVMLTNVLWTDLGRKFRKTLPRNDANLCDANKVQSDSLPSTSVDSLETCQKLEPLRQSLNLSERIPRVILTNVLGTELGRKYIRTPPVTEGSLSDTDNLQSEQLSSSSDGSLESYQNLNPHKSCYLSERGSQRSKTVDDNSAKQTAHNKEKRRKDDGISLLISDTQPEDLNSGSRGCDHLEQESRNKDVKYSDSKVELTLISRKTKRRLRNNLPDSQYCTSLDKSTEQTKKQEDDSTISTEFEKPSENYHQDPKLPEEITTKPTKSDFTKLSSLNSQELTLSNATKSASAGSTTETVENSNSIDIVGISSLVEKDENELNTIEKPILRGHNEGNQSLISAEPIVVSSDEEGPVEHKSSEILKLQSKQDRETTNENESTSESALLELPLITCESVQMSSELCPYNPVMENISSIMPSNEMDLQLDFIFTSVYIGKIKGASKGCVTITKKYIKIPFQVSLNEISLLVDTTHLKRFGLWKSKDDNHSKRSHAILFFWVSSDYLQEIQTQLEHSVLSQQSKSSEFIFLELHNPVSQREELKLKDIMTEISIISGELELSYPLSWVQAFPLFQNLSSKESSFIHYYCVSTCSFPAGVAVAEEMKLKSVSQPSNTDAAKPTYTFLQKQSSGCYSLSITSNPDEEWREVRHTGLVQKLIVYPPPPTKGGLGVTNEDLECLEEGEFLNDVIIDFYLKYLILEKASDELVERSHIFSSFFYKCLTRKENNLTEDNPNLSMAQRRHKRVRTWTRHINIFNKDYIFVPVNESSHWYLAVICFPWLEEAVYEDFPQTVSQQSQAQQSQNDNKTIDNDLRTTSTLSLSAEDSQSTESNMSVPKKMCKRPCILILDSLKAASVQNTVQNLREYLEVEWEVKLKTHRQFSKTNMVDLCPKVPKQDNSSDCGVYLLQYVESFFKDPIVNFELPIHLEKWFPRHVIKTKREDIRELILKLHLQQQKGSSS

Caspase-3 = target: T2, Caspase-3 (Homo sapiens, UniProt P42574); experiment: SAR Analysis of small molecule inhibitors of Sentrin-specific proteases (SENPs) using a Caspase-3 Selectivity assay. [Related pubchem assays (depositor defined):AID2540, AID2599, AID434973, AID489001]; format: functional
T2 sequence (P42574 whole entry): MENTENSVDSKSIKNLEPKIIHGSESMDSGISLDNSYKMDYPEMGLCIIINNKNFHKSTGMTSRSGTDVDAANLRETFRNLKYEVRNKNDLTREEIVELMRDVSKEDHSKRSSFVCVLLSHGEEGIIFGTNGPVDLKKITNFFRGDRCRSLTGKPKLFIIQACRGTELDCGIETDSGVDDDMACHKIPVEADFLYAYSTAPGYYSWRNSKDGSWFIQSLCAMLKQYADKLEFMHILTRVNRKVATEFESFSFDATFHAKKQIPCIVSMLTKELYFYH

[4] = target: Induced myeloid leukemia cell differentiation protein Mcl-1 (Homo sapiens, UniProt Q07820); format: functional
H4 = experiment: Luminescence Cell-Based Dose Response HTS to Identify Activators of 5'UTR Stem-Loop Driven Prion Protein mRNA Translation in H4 Neuroglioblastoma Cells. [Related pubchem assays: 1829 (Project Summary), 1814 (Primary HTS)]; format: functional; details: Homo sapiens
[5] = target: Serine/threonine-protein kinase Nek2 (Homo sapiens, UniProt P51955); format: functional
[6] = target: Megakaryocyte-associated tyrosine-protein kinase (Homo sapiens, UniProt P42679); format: functional;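 note: affinity measured as one member of a kinase panel (Navigating the Kinome) against MATK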
[7] = target: Phosphorylase b kinase gamma catalytic chain, liver/testis isoform (Homo sapiens, UniProt P15735); format: functional;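 note: PHKG2 measured as one member of a kinome-wide kinase panel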
[8] = target: Interleukin-1 receptor-associated kinase 1 (Homo sapiens, UniProt P51617); format: functional;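 note: IRAK1 tested as one member of a kinome panel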
[9] = target: Tyrosine-protein kinase Fyn (Homo sapiens, UniProt P06241); format: functional
Aurora kinase A = Aurora kinase A (Homo sapiens, UniProt O14965); format: functional;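 note: value from the Navigating the Kinome kinase panel profiling, panel entry STK6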
[10] = target: PAS domain-containing serine/threonine-protein kinase (Homo sapiens, UniProt Q96RG2); format: functional
[11] = target: Mitogen-activated protein kinase kinase kinase kinase 2 (Homo sapiens, UniProt Q12851); format: functional;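 note: measured as one member of a kinome-wide kinase panel, with MAP4K2 as the panel entry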
[12] = target: Mast/stem cell growth factor receptor Kit (Homo sapiens, UniProt P10721); format: functional;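 note: KIT entry within a kinase panel assay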
[13] = target: Protein kinase C delta type (Homo sapiens, UniProt Q05655); format: functional
[14] = target: Tyrosine-protein kinase Fer (Homo sapiens, UniProt P16591); format: functional;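 note: FER tested as one member of a kinome panel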
[15] = target: Tyrosine-protein kinase ITK/TSK (Homo sapiens, UniProt Q08881); format: functional;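 note: affinity for ITK measured as one member of a broad kinase panel profiling binding across the kinome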
[16] = HEK-293T viability loss after treatment – luminescence, T-cell screen hits, cytotoxicity control for TCR NF-kB inhibitor project, dose response (AID 489026); format: functional, cell-based;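 note: cells exposed to compound about 14 hours before the viability readout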
[17] = NIH-3T3 fibroblast cytotoxicity, dose response, cytotoxicity control, cell-based, fluorescence, Alamar Blue, secondary assay (AID 2327); format: functional;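 note: NIH-3T3 mouse fibroblasts cultured with fluconazole at 8 µg/mL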
[18] = target: T3, Type-1 angiotensin II receptor (Homo sapiens, UniProt P30556); experiment: antagonism of angiotensin II type 1 receptor – cell-based, uHTS hits, selectivity assay for APJ receptor antagonist project, dose response (AID 463214); format: functional;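 note: antagonist potency against angiotensin II stimulated AT1 response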
T3 sequence (P30556 whole entry): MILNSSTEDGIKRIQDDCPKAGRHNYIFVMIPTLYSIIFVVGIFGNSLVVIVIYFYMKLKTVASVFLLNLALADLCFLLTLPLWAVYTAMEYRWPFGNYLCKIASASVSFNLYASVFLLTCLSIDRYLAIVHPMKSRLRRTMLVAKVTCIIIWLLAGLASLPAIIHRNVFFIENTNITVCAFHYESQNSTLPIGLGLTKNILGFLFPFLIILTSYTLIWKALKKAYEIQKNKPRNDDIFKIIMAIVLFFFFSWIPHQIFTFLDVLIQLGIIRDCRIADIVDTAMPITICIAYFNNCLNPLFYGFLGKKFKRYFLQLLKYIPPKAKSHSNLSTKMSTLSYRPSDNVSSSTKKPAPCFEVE

[19] = IC50 of Artemis nuclease activity blockers – biochemical, fluorescence intensity, dose response (AID 720701); format: functional;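 note: Artemis endonuclease enzyme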

Tyrosine-protein kinase Fer, sequence (P16591 whole entry): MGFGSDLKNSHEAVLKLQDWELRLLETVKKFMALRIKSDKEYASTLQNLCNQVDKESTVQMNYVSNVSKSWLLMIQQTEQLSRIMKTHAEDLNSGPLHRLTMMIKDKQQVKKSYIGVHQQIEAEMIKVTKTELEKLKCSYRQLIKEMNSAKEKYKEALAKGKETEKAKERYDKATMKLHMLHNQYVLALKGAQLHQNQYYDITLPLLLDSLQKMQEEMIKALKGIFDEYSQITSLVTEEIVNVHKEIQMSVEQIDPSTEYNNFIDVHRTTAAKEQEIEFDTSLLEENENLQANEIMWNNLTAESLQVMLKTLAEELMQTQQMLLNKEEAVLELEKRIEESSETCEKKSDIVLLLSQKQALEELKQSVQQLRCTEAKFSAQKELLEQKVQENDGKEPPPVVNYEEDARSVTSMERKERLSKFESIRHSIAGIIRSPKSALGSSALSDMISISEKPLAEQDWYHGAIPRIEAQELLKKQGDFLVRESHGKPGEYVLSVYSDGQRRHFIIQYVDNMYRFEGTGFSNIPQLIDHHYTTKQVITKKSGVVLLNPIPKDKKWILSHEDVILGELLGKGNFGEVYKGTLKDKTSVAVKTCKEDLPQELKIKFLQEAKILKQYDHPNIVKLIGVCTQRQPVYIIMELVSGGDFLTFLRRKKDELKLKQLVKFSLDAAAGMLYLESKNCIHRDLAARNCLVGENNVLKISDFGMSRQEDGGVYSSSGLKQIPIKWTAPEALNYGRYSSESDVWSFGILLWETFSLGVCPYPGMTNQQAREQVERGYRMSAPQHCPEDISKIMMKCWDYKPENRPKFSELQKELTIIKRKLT
Megakaryocyte-associated tyrosine-protein kinase, sequence (P42679 whole entry, canonical isoform): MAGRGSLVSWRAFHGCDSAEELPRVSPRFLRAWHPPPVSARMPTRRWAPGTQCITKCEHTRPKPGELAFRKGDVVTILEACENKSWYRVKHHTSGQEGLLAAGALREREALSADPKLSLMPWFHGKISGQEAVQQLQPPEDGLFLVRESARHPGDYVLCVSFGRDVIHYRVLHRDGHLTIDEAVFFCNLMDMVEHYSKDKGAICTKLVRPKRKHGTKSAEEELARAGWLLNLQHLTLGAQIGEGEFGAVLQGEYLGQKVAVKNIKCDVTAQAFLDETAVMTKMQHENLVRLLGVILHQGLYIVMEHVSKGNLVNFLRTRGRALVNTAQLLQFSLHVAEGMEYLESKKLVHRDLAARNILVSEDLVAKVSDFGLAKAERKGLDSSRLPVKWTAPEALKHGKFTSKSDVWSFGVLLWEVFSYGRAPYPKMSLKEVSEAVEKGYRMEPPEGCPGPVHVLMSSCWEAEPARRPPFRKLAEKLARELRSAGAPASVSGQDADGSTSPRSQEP
Aurora kinase A, sequence (O14965 whole entry, the tested form may be a part): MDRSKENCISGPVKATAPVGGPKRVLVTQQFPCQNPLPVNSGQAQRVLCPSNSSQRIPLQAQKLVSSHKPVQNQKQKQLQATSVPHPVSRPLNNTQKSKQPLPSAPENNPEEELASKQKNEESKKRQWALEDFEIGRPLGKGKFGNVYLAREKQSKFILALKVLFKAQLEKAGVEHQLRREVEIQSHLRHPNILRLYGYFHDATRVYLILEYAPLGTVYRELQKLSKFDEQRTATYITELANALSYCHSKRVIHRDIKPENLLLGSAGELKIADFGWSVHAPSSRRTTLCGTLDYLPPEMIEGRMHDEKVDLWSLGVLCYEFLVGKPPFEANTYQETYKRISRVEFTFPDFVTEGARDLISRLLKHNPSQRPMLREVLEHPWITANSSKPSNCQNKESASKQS
Mast/stem cell growth factor receptor Kit, sequence (P10721 whole entry): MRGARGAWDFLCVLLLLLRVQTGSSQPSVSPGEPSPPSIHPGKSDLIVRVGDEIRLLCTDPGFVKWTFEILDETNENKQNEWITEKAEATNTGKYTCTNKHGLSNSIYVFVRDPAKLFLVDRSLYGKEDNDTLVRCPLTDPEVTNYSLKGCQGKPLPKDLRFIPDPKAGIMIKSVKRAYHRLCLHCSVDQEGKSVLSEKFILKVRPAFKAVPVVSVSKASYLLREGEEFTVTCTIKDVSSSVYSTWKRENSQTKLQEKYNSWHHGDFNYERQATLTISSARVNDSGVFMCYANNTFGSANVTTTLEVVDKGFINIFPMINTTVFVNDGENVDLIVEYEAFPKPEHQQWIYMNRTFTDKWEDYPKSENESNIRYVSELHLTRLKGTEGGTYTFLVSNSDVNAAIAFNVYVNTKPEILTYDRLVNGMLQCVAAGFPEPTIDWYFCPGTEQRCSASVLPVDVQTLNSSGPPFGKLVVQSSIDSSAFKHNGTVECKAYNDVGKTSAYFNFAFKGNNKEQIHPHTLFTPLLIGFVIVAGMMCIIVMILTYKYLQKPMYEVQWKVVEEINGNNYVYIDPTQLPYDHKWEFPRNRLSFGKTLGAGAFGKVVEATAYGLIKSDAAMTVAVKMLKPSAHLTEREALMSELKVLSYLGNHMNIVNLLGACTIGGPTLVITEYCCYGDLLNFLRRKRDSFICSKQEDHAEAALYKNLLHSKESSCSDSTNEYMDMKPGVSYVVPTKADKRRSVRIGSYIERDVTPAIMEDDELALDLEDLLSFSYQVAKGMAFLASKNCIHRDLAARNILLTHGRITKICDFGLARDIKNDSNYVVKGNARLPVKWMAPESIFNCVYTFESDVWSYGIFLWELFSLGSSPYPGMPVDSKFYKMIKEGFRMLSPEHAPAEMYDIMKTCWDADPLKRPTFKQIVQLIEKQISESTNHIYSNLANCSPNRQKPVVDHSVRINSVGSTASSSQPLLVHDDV
Mitogen-activated protein kinase kinase kinase kinase 2, sequence (Q12851 whole entry): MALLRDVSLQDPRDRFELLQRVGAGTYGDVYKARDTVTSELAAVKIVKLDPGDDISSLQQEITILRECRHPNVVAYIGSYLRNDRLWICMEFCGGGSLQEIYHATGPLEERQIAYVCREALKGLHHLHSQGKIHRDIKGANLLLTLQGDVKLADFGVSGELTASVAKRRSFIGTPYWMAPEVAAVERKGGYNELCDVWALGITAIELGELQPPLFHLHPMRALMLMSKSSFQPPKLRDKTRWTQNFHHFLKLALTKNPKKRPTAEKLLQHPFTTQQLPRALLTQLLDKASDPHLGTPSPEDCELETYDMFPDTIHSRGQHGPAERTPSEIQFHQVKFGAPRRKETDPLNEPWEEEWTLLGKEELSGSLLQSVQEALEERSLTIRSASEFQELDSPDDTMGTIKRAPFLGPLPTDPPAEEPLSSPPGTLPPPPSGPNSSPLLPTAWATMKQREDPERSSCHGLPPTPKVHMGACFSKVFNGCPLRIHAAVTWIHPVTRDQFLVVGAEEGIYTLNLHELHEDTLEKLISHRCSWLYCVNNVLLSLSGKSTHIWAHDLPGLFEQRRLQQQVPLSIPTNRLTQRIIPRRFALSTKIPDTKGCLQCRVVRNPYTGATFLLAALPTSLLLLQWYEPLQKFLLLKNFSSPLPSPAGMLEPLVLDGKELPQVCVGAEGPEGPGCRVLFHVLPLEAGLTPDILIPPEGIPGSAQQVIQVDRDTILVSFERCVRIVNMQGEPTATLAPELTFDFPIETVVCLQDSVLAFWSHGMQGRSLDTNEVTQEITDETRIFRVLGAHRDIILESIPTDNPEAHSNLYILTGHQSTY
Induced myeloid leukemia cell differentiation protein Mcl-1, sequence (Q07820 whole entry): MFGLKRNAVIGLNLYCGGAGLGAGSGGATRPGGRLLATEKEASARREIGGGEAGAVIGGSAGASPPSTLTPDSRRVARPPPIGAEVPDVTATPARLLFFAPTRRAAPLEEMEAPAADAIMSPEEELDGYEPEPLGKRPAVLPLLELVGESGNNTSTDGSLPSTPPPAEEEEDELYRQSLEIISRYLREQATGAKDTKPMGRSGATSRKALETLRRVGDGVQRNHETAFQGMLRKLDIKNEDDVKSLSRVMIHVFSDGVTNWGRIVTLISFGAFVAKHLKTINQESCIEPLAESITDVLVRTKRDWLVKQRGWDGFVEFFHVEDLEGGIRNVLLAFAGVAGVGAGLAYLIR
Tyrosine-protein kinase ITK/TSK, sequence (Q08881 whole entry): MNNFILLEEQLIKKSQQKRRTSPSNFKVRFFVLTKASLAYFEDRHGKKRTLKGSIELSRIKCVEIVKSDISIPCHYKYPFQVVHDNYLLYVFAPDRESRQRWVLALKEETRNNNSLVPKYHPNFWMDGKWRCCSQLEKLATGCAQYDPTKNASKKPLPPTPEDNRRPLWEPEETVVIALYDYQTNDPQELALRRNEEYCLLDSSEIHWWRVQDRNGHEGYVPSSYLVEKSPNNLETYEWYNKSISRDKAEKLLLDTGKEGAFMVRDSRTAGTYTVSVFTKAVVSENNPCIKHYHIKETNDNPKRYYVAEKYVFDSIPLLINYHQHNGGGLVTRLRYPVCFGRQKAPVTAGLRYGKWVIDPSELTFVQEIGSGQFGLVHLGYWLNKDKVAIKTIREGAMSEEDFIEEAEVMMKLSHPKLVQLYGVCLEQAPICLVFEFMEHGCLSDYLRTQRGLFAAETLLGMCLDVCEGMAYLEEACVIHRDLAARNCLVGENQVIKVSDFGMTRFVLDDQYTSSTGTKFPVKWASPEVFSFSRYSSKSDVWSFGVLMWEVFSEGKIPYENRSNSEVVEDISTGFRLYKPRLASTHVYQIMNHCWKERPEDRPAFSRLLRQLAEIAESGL
Phosphorylase b kinase gamma catalytic chain, liver/testis isoform, sequence (P15735 whole entry, canonical isoform): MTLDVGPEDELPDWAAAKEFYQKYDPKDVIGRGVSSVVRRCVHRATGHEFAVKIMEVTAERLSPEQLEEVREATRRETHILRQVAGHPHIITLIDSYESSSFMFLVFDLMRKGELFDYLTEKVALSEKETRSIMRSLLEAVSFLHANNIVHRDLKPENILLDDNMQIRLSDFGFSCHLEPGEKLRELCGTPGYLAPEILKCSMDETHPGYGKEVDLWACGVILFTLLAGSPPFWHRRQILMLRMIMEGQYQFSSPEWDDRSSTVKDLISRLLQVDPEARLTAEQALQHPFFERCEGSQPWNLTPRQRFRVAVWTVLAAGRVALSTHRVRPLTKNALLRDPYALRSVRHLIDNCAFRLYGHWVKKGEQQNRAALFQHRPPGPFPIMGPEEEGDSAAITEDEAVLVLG

## Cc1cnc(NC(=O)c2sc3ccccc3c2Cl)s1
[1]
  AC50: 25.4 µM (active)
[2]
  AC50: 3.07 µM (active)
[3]
  IC50: 1.77 µM (active)
Caspase-3
  IC50: 3.14 µM (active)

## CN(C)c1ncc(C2=C(Cl)C(=O)C(N3CCCC3)=C(Cl)C2=O)s1
[4]
  IC50: 26.4 µM (active)
H4
  EC50: 34.1 µM (active)

## O=C1NC(=S)SC1=C1C(=O)Nc2ccc(Br)cc21
[5]
  Ki: > 10 µM (inactive)
[6]
  Ki: > 2 µM (inactive)
[7]
  Ki: > 5.01 µM (inactive)
[8]
  Ki: > 7.94 µM (inactive)
[9]
  Ki: > 0.794 µM (inactive)
Aurora kinase A
  Ki: 0.501 µM (active)
[10]
  Ki: > 1.58 µM (inactive)
[11]
  Ki: > 6.31 µM (inactive)
[12]
  Ki: > 1.26 µM (inactive)
[13]
  Ki: > 7.94 µM (inactive)
[14]
  Ki: > 1.58 µM (inactive)
[15]
  Ki: > 1.58 µM (inactive)

## Cc1ccc(Nc2cc(C)nn2-c2nc(C)cc(O)n2)cc1
[16]
  IC50: > 80 µM (inactive)
[17]
  EC50: 1.76 µM (inconclusive)
[18]
  IC50: 1.77 µM (active)

## Cc1ccc(C(=O)c2c(C)oc3c2C(=O)C(=O)c2ccccc2-3)cc1
[19]
  IC50: 2.2 µM (active)
